From patent publication US9737545B2 (MERCK SHARP & DOHME CORP., priority 2013, dated 2017) come the findings set out here.

The experiment addresses T1, wildtype HIV-1 protease (Human immunodeficiency virus type 1 group M subtype B, UniProt P04585).
T1 construct: preincubated with the HIV-1 protease (wild type) enzyme in assay buffer; made in house; host or cells: Escherichia coli
Description: Assay for Inhibition of Microbial Expressed HIV Protease (Pepcleav). The class given is biochemical. On the procedure:
Assay for Inhibition of Microbial Expressed HIV Protease (“Pepcleav”)
Studies of the inhibition of the wildtype HIV-1 protease (which was expressed in Escherichia coli) were carried out with a peptide substrate [Val-Ser-Gln-Asn-(βnaphthyl)Ala-Pro-Ile-Val (SEQ ID NO: 1)]. The inhibitor was first preincubated with the HIV-1 protease (wild type) enzyme in assay buffer (50 mM sodium acetate, pH 5.5, 100 mM NaCl, and 0.1% BSA) for 30 minutes at room temperature. Substrate was added to 400 micromolar in a total volume of 20 microliters containing 20 picomolar HIV-1 protease (final) and the reaction was incubated for 1 hour at 30° C. The reaction was quenched with the addition of formic acid and indinavir to 0.012% and 150 nM final concentrations, respectively. The product formation was determined after separation of product and substrate on a Zorbax Eclipse XDB-C18 column connected to an API 4000 mass spectrometer (Applied Biosystems) with multiple reaction monitoring (transitions were 644.5/428.9 and 615.4/422.2 (M1/M3) for product and indinavir respectively). The extent of inhibition of the reaction was determined from the peak area of the products. Analysis of the products, independently synthesized, provided quantitation standards and confirmation of the product composition.

SMILES strings stand for the structures.

Take `COC(=O)N[C@H](C(=O)Nc1ccccc1CC[C@@H]1CN[C@H](c2cnn[nH]2)CO1)C(c1ccccc1)c1ccccc1` [Example 52, Nα-(methoxycarbonyl)-β-phenyl-N-(2-{2-[(2R,5R)-5-(1H-1,2,3-triazol-5-yl)morpholin-2-yl]ethyl}phenyl)-L-phenylalaninamide]: half-maximal inhibition (IC50) required 250 nM.

Compound `COC(=O)N[C@H](C(=O)Nc1ccccc1CC[C@@H]1CN[C@H](c2cc3ccccc3[nH]2)CO1)C(c1ccccc1)c1ccccc1` [Example 53, N-(2-{2-[(2R,5R)-5-(1H-indol-2-yl)morpholin-2-yl]ethyl}phenyl)-Nα-(methoxycarbonyl)-β-phenyl-L-phenylalaninamide] had an IC50 of 44.4 nM. Compound `COC(=O)N[C@H](C(=O)Nc1ccccc1CC[C@@H]1CN[C@H](c2cc3cc(C)ccc3[nH]2)CO1)C(c1ccccc1)c1ccccc1` [Example 54, Nα-(methoxycarbonyl)-N-(2-{2-[(2R,5R)-5-(5-methyl-1H-indol-2-yl)morpholin-2-yl]ethyl}phenyl)-β-phenyl-L-phenylalaninamide] had an IC50 of 143 nM. As to `COC(=O)N[C@H](C(=O)Nc1ccccc1CC[C@@H]1CN[C@H](c2cc3cc(C(F)(F)F)ccc3[nH]2)CO1)C(c1ccccc1)c1ccccc1` [Example 55], the midpoint of inhibition, the IC50, lay at 152 nM. The IC50 values of the last two compounds are within 1.5-fold of each other. As to `COC(=O)N[C@H](C(=O)Nc1ccccc1CC[C@@H]1CN[C@H](c2cc3cc(OC)ccc3[nH]2)CO1)C(c1ccccc1)c1ccccc1` [Example 56, Nα-(methoxycarbonyl)-N-(2-{2-[(2R,5R)-5-(5-methoxy-1H-indol-2-yl)morpholin-2-yl]ethyl}phenyl)-β-phenyl-L-phenylalaninamide], the IC50 was found to be 98.3 nM. The compound `COC(=O)N[C@H](C(=O)Nc1ccccc1CC[C@@H]1CN[C@H](c2cc3cc(Cl)ccc3[nH]2)CO1)C(c1ccccc1)c1ccccc1` [Example 57, N-(2-{2-[(2R,5R)-5-(5-chloro-1H-indol-2-yl)morpholin-2-yl]ethyl}phenyl)-Nα-(methoxycarbonyl)-β-phenyl-L-phenylalaninamide] registered an IC50 of 70.2 nM. `COC(=O)N[C@H](C(=O)Nc1ccccc1CC[C@@H]1CN[C@H](c2cc3ccc(Cl)cc3[nH]2)CO1)C(c1ccccc1)c1ccccc1` [Example 58, N-(2-{2-[(2R,5R)-5-(6-chloro-1H-indol-2-yl)morpholin-2-yl]ethyl}phenyl)-Nα-(methoxycarbonyl)-β-phenyl-L-phenylalaninamide]: the IC50 turned out to be 76.2 nM.

`COC(=O)N[C@H](C(=O)Nc1ccccc1CC[C@@H]1CN[C@H](c2cc3cccc(Cl)c3[nH]2)CO1)C(c1ccccc1)c1ccccc1` [Example 59, N-(2-{2-[(2R,5R)-5-(7-chloro-1H-indol-2-yl)morpholin-2-yl]ethyl}phenyl)-Nα-(methoxycarbonyl)-β-phenyl-L-phenylalaninamide] yielded a 50% inhibitory concentration (IC50) of 96.4 nM.

In turn, `COC(=O)N[C@H](C(=O)Nc1ccccc1CC[C@@H]1CN[C@H](c2cc3c(Cl)cccc3[nH]2)CO1)C(c1ccccc1)c1ccccc1` [Example 60, N-(2-{2-[(2R,5R)-5-(4-chloro-1H-indol-2-yl)morpholin-2-yl]ethyl}phenyl)-Nα-(methoxycarbonyl)-β-phenyl-L-phenylalaninamide] showed an IC50 of 88.6 nM. This IC50 and that of the compound before are within 1.5-fold of each other. Regarding `COC(=O)N[C@H](C(=O)Nc1ccccc1CC[C@@H]1CN[C@H](c2cc3cnccc3[nH]2)CO1)C(c1ccccc1)c1ccccc1` [Example 61, Nα-(methoxycarbonyl)-β-phenyl-N-(2-{2-[(2R,5R)-5-(1H-pyrrolo[3,2-c]pyridin-2-yl)morpholin-2-yl]ethyl}phenyl)-L-phenylalaninamide], the IC50 is 550 nM. Take `COC(=O)N[C@H](C(=O)Nc1ccccc1CC[C@@H]1CN[C@H](c2cc3cccnc3[nH]2)CO1)C(c1ccccc1)c1ccccc1` [Example 62, Nα-(methoxycarbonyl)-β-phenyl-N-(2-{2-[(2R,5R)-5-(1H-pyrrolo[2,3-b]pyridin-2-yl)morpholin-2-yl]ethyl}phenyl)-L-phenylalaninamide]: half-maximal inhibition (IC50) was put at 156 nM.

The compound `O=C(C[C@H](c1ccccc1)c1ccc(F)cc1)Nc1cncc(F)c1CC[C@@H]1CN[C@H](c2nc3cc(F)c(F)cc3[nH]2)CO1` [Example 70, (3R)—N-(4-{2-[(2R,5R)-5-(5,6-difluoro-1H-benzimidazol-2-yl)morpholin-2-yl]ethyl}-5-fluoropyridin-3-yl)-3-(4-fluorophenyl)-3-phenylpropanamide] gave an IC50 of 0.01 nM. As to `O=C(C[C@H](c1ccccc1)c1ccc(F)cc1)Nc1cncc(F)c1CC[C@@H]1CN[C@H](c2nc3ccccc3[nH]2)CO1` [Example 71, (3R)—N-(4-{2-[(2R,5R)-5-(1H-benzimidazol-2-yl)morpholin-2-yl]ethyl}-5-fluoropyridin-3-yl)-3-(4-fluorophenyl)-3-phenylpropanamide], the IC50 is 0.01 nM. The compound `COC(=O)N[C@H](C(=O)Nc1cncc(F)c1CC[C@@H]1CN[C@H](c2nc3ccccc3[nH]2)CO1)C(c1ccc(F)cc1)c1ccc(F)cc1` [Example 72, N-(4-{2-[(2R,5R)-5-(1H-benzimidazol-2-yl)morpholin-2-yl]ethyl}-5-fluoropyridin-3-yl)-4-fluoro-β-(4-fluorophenyl)-Nα-(methoxycarbonyl)-L-phenylalaninamide] showed a 50% inhibitory concentration (IC50) of 0.01 nM.

Compound `O=C(C[C@@H](c1ccc(F)cc1)c1ccncc1F)Nc1cccc(F)c1CC[C@@H]1CN[C@H](c2nc3ccccc3[nH]2)CO1` [Example 73, (3S)—N-(2-{2-[(2R,5R)-5-(1H-benzimidazol-2-yl)morpholin-2-yl]ethyl}-3-fluorophenyl)-3-(4-fluorophenyl)-3-(3-fluoropyridin-4-yl)propanamide] came in with an IC50 of 0.01 nM. Regarding `N[C@H](C(=O)Nc1cncc(F)c1CC[C@@H]1CN[C@H](c2nc3cc(F)c(F)cc3[nH]2)CO1)C(c1ccc(F)cc1)c1ccc(F)cc1` [Example 75, N-(4-{2-[(2R,5R)-5-(5,6-difluoro-1H-benzimidazol-2-yl)morpholin-2-yl]ethyl}-5-fluoropyridin-3-yl)-4-fluoro-β-(4-fluorophenyl)-L-phenylalaninamide], the IC50 is 0.01 nM.

For `COC(=O)N[C@H](C(=O)Nc1cncc(F)c1CC[C@@H]1CN[C@H](c2nc3cc(F)c(F)cc3[nH]2)CO1)C(c1ccc(F)cc1)c1ccc(F)cc1` [Example 76, N-(4-{2-[(2R,5R)-5-(5,6-difluoro-1H-benzimidazol-2-yl)morpholin-2-yl]ethyl}-5-fluoropyridin-3-yl)-4-fluoro-β-(4-fluorophenyl)-Nα-(methoxycarbonyl)-L-phenylalaninamide], the IC50 worked out at 0.02 nM. In turn, `COC(=O)N[C@H](C(=O)Nc1ccccc1CC[C@@H]1CN[C@H](c2nnn[nH]2)CO1)C(c1ccccc1)c1ccccc1` [Example 77, Nα-(methoxycarbonyl)-β-phenyl-N-(2-{2-[(2R,5R)-5-(1H-tetrazol-5-yl)morpholin-2-yl]ethyl}phenyl)-L-phenylalaninamide] gave a half-maximal inhibitory concentration (IC50) of 3.5 nM. The value for `COC(=O)N[C@H](C(=O)Nc1ccccc1CC[C@@H]1CN[C@H](c2nnc(Cc3ccccc3)o2)CO1)C(c1ccccc1)c1ccccc1` [Example 78] was 62 nM; that for `COC(=O)N[C@H](C(=O)Nc1ccccc1CC[C@@H]1CN[C@H](c2nnc(-c3ccc(F)cc3)o2)CO1)C(c1ccccc1)c1ccccc1` [Example 79] was 59 nM. As to `COC(=O)N[C@H](C(=O)Nc1ccccc1CC[C@@H]1CN[C@H](c2nnc(C)o2)CO1)C(c1ccccc1)c1ccccc1` [Example 80], the IC50 is 220 nM. Turning to `COC(=O)N[C@H](C(=O)Nc1ccccc1CC[C@@H]1CN[C@H](c2nnc(Cc3ccccc3)[nH]2)CO1)C(c1ccccc1)c1ccccc1` [Example 81], the IC50 came to 2.8 nM. Consider `COC(=O)N[C@H](C(=O)Nc1ccccc1CC[C@@H]1CN[C@H](c2nnco2)CO1)C(c1ccccc1)c1ccccc1` [Example 82], for which 280 nM corresponded to half-maximal inhibition (IC50). The value for `COC(=O)N[C@H](C(=O)Nc1ccccc1CC[C@@H]1CN[C@H](c2csc(C)n2)CO1)C(c1ccccc1)c1ccccc1` [Example 83] was 89 nM; that for `COC(=O)N[C@H](C(=O)Nc1ccccc1CC[C@@H]1CN[C@H](c2csc(Cc3ccccc3)n2)CO1)C(c1ccccc1)c1ccccc1` [Example 84] was 150 nM. As for `COC(=O)N[C@H](C(=O)Nc1ccccc1CC[C@@H]1CN[C@H](c2nc3cc(Cl)c(Cl)cc3[nH]2)CO1)C(c1ccccc1)c1ccccc1` [Example 85], it took 0.4 nM to reach half-maximal inhibition (IC50). The value for `COC(=O)N[C@H](C(=O)Nc1ccccc1CC[C@@H]1CN[C@H](c2ncc[nH]2)CO1)C(c1ccccc1)c1ccccc1` [Example 86] was 1.8 nM; that for `COC(=O)N[C@H](C(=O)Nc1ccccc1CC[C@@H]1CN[C@H](c2ncc[nH]2)[C@@H](CSc2nnc(-c3ccncc3)o2)O1)C(c1ccccc1)c1ccccc1` [Example 87, N-(2-{2-[(2R,5R)-(1H-imidazol-2-yl)-6-{[(5-pyridin 4-yl-1,3,4-oxadiazol-2-yl)sulfanyl]methyl}morpholin-2-yl]ethyl}phenyl)-Nalpha-(methoxycarbonyl)-β-phenyl-L-phenylalaninamide] was 0.6 nM; that for `COC(=O)N[C@H](C(=O)Nc1ccccc1CC[C@@H]1CN[C@H](c2cn(C)c(=O)[nH]2)CO1)C(c1ccccc1)c1ccccc1` [Example 88] was 310 nM. The value for `COC(=O)N[C@H](C(=O)Nc1ccccc1CC[C@@H]1CN[C@H](c2nc3ccc(O)nc3[nH]2)CO1)C(c1ccccc1)c1ccccc1` [Example 89] was 150 nM.
